Source: ChEMBL document CHEMBL1144987, “Synthesis and In vivo anti-inflammatory activity of long-chain 2-amino-alcohols” (2003)

Legend:
Format in all cases: functional
Rattus norvegicus [1] = assay: Analgesic activity in rats by acetic acid writhing test at a dose of 0.017 mmol/kg
Rattus norvegicus [2] = assay: In vivo antiinflammatory activity by rat carrageenan-induced paw edema assay
Rattus norvegicus [3] = assay: Analgesic activity in rats by acetic acid writhing test at a dose of 0.010 mmol/kg

| SMILES | Analgesic activity (Rattus norvegicus [1]) | ED50 (Rattus norvegicus [2]) | Analgesic activity (Rattus norvegicus [3]) |
| --- | --- | --- | --- |
| CCCCCCCCCCCCCC[C@H](N)CO.Cl | 89.2% | 17 µmol/kg | – |
| CCCCCCCCCCCCCC[C@@H](N)CO.Cl | 72.6% | 17 µmol/kg | – |
| CCCCCCCCCCCCOC[C@@H](N)CO.Cl | – | 10 µmol/kg | 95.6% |
| CCCCCCCC/C=C/CCCCCC[C@H](N)CO.Cl | – | 10 µmol/kg | 88.1% |
| COc1ccc2c(c1)c(CC(=O)O)c(C)n2C(=O)c1ccc(Cl)cc1 [INDOMETHACIN] | 47% | 11 µmol/kg | – |
